Data taken from patent US8808716B2, “Topical foam composition” (Stiefel Research Australia Pty Ltd, priority 2009, dated 2014).

Test: accelerated stability study (HPLC) of compatibility of tazarotene with surfactants
Type: physicochemical
Details: 50° C.; in hydrophilic ethoxylated fatty alcohol ether surfactant such as Ceteareth-12, in contrast to various lipophilic surfactants
Protocol: An accelerated stability study (using HPLC) was conducted at 50° C. to measure the compatibility of tazarotene with various surfactants.

- tazarotene stability (compatibility with surfactant): most stable
SMILES: CCOC(=O)c1ccc(C#Cc2ccc3c(c2)C(C)(C)CCS3)nc1 [tazarotene]
